# Results reported in US20120015957A1, “PIPERAZINYL DERIVATIVES USEFUL AS MODULATORS OF THE NEUROPEPTIDE Y2 RECEPTOR” (priority 2007, published 2012).
# Target: T1, NPY Y2 receptor (Homo sapiens, UniProt P49146)
# T1 construct: endogenous in cells; host or cells: KAN-Ts cells (membrane preparation)
# T1 sequence (P49146 1-381): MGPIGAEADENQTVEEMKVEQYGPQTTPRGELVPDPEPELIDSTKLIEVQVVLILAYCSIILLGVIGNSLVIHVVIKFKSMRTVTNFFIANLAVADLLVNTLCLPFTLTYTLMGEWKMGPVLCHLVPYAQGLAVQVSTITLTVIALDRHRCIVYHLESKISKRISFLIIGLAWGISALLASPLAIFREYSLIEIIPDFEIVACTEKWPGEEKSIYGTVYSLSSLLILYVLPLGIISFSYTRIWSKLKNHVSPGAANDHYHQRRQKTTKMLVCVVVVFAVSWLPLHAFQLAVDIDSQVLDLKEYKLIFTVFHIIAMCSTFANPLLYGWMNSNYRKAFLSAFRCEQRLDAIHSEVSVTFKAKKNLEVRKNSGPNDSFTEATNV
# Assay: Neuropeptide Y2 radioligand binding assay ([125I]PYY, KAN-Ts cell membranes)
# Details: membranes of KAN-Ts cells endogenously expressing Y2 receptors; [125I]PYY 80 pM; 1 h at rt; read-out: IC50 (μM), NPY Y2 binding
# Protocol: KAN-Ts endogenously expressing Y2 receptors were used for the radioligand binding assay. Cells were grown to confluence on 150 cm^2 tissue culture plates, washed with phosphate-buffered saline (PBS), and scraped into 50 mL tubes. After centrifugation, the supernatant was aspirated, and the pellets frozen and stored at −80° C. Thawed pellets were homogenized with a polytron tissue grinder for 15 sec in 20 mM Tris-HCl, 5 mM EDTA. The homogenate was centrifuged at 800×g for 5 min and the collected supernatant was recentrifuged at 25000×g for 25 min. The resulting pellet was resuspended in binding buffer (20 mM HEPES, 120 mM NaCl, 0.22 mM KH2PO4, 1.3 mM CaCl2, 0.8 mM MgSO4). Membranes were incubated with [^125I]PYY (80 pM) in the presence or absence of test compound for 1 h at rt. The reaction was stopped by filtration through GF/C filter plates pre-soaked in 0.3% polyethylenimine and subsequently washed with Tris 50 mM, 5 mM EDTA buffer. Plates were dried for 1 h in a 55° C. oven, scintillation fluid was added and the radioactivity was counted in a Packard TopCount. Specific binding to the NPY receptor subtypes was determined by radioactivity that was bound in the presence of […] NPY. Each binding experiment was repeated three to eight times, each in duplicate. IC50 values (i.e. concentration of unlabelled peptide or antagonist required to compete for 50% of specific binding to the radioligand) were determined using the GraphPad Prism software (GraphPad Software Inc., San Diego Calif.) with a fit to a sigmoidal dose response curve. Apparent K values were as K=IC50/(1+C/KD), where C is concentration of the radioligand.
row,SMILES,IC50 [µM]
1,"CCN(CC)C(=O)C(c1ccccc1)N1CCN(c2ccc(-c3noc(CF)n3)cc2F)CC1 (stereo not shown) [Compound 105, N,N-Diethyl-2-{4-[2-fluoro-4-(5-fluoromethyl-[1,2,4]oxadiazol-3-yl)-phenyl]-piperazin-1-yl}-2-phenyl-acetamide]",0.16
2,"CCC(CC)c1nc(-c2ccc(N3CCN(C(C(=O)N(CC)CC)c4ccccc4)CC3)c(F)c2)no1 (stereo not shown) [Compound 70, N,N-Diethyl-2-(4-{4-[5-(1-ethyl-propyl)-[1,2,4]oxadiazol-3-yl]-2-fluoro-phenyl}-piperazin-1-yl)-2-phenyl-acetamide]",0.48
3,"CCN(CC)C(=O)C(c1ccccc1)N1CCN(c2ccc(-c3nc(C(C)C)no3)cc2F)CC1 (stereo not shown) [Compound 80, N,N-Diethyl-2-{4-[2-fluoro-4-(3-isopropyl-[1,2,4]oxadiazol-5-yl)-phenyl]-piperazin-1-yl}-2-phenyl-acetamide]",0.041
4,"CCN(CC)C(=O)C(c1ccccc1)N1CCN(c2ccc(-c3nc(C)ns3)cc2F)CC1 (stereo not shown) [Compound 271, N,N-Diethyl-2-{4-[2-fluoro-4-(3-methyl-[1,2,4]thiadiazol-5-yl)-phenyl]-piperazin-1-yl}-2-phenyl-acetamide]",0.11
5,"CCc1nc(-c2ccc(N3CCN(C(C(=O)N(CC)CC)c4ccccc4)CC3)c(F)c2)no1 (stereo not shown) [Compound 3, N,N-Diethyl-2-{4-[4-(5-ethyl-[1,2,4]oxadiazol-3-yl)-2-fluoro-phenyl]-piperazin-1-yl}-2-phenyl-acetamide]",0.24
6,"CCN(CC)C(=O)C(c1ccccc1)N1CCN(c2ccc(-c3nnc(C(C)C)o3)cc2F)CC1 (stereo not shown) [Compound 154, N,N-Diethyl-2-{4-[2-fluoro-4-(5-isopropyl-[1,3,4]oxadiazol-2-yl)-phenyl]-piperazin-1-yl}-2-phenyl-acetamide]",0.22

# Further lines, results first:
row,IC50 [µM],SMILES
1,0.03,"CCN(CC)C(=O)C(c1ccccc1)N1CCN(c2ccc(-c3ccccc3OC)cc2C#N)CC1 (stereo not shown) [Compound 255, 2-[4-(3-Cyano-2′-methoxy-biphenyl-4-yl)-piperazin-1-yl]-N,N-diethyl-2-phenyl-acetamide]"
2,2.9,"CCN(CC)C(=O)C(c1ccccc1)N1CCN(c2ccc(-c3nc(C)n[nH]3)cc2F)CC1 (stereo not shown) [Compound 208, N,N-Diethyl-2-{4-[2-fluoro-4-(5-methyl-2H-[1,2,4]triazol-3-yl)-phenyl]-piperazin-1-yl}-2-phenyl-acetamide]"
3,0.56,"Cc1noc(-c2ccc(N3CCN(C(C(=O)N(C)C)c4ccccc4)CC3)c(F)c2)n1 (stereo not shown) [Compound 182, 2-{4-[2-Fluoro-4-(3-methyl-[1,2,4]oxadiazol-5-yl)-phenyl]-piperazin-1-yl}-N,N-dimethyl-2-phenyl-acetamide]"
4,0.37,"CC[C@H](C)c1nc(-c2ccc(N3CCN(C(C(=O)N(CC)CC)c4ccccc4)CC3)c(F)c2)no1 (stereo in doubt) [Compound 97, 2-{4-[4-(5-sec-Butyl-[1,2,4]oxadiazol-3-yl)-2-fluoro-phenyl]-piperazin-1-yl}-N,N-diethyl-2-phenyl-acetamide]"
5,0.035,"CCN(CC)C(=O)C(c1ccc(OC)cc1)N1CCN(c2ccc(-c3nc(C)no3)cc2C#N)CC1 (stereo not shown) [Compound 250, 2-{4-[2-Cyano-4-(3-methyl-[1,2,4]oxadiazol-5-yl)-phenyl]-piperazin-1-yl}-N,N-diethyl-2-(4-methoxy-phenyl)-acetamide]"
6,0.15,"CC(C)c1noc(-c2ccc(N3CCN(C(C(=O)N(C)C)c4ccccc4)CC3)c(F)c2)n1 (stereo not shown) [Compound 180, 2-{4-[2-Fluoro-4-(3-isopropyl-[1,2,4]oxadiazol-5-yl)-phenyl]-piperazin-1-yl}-N,N-dimethyl-2-phenyl-acetamide]"
7,1.9,"CCN(CC)C(=O)C(c1ccccc1)N1CCN(c2ccc(-c3noc(=O)n3C)cc2F)CC1 (stereo not shown) [Compound 176, N,N-Diethyl-2-{4-[2-fluoro-4-(4-methyl-5-oxo-4,5-dihydro-[1,2,4]oxadiazol-3-yl)-phenyl]-piperazin-1-yl}-2-phenyl-acetamide]"
